According to ChEMBL document CHEMBL3992492, “Sulfoximines from a Medicinal Chemist's Perspective: Physicochemical and in vitro Parameters Relevant for Drug Discovery” (Eur J Med Chem, 2017):
In brackets after ≈: the same amount, converted by molar mass.

Tests used:
in vitro [1] = conditions: human, liver microsomes
Description: Half life in human liver microsomes at 1 uM in presence of NADPH by LC-MS/MS method

in vitro [2] = conditions: human, liver microsomes; remark: listed apart in the source
physchem [3] = conditions: aqueous
in vitro [4] = conditions: PAMPA, pH 7.4
Description: Apparent permeability of the compound at pH 7.4 by PAMPA

[5] = Apparent partition coefficient, log P of the compound in n-octanol/aqueous mixture by potentiometric titration method; type: physicochemical
physchem [6] = conditions: acetonitrile/water mixture
Description: Solubility of the compound in acetonitrile/water mixture at 10 mM measured after 24 by HPLC-UV method

[7] = Drug degradation in pH <1 HCl after 7 days by HPLC method
physchem [8] = conditions: octanol/water, pH 10
[9] = Drug degradation in pH >10 NH3 after 7 days by HPLC method
[10] = Dissociation constant, pKb of the compound in aqueous/organic mixture at pH 2 to 12 by potentiometric titration method; type: physicochemical; conditions: buffer

Compound	half-life at 1 µM (in vitro [1])	hepatic extraction ratio at 1 µM (in vitro [2])	solubility thermodynamic (physchem [3])	Papp (in vitro [4])	logP [5]	solubility at 10000 µM (physchem [6])	Drug degradation [7]	logP (physchem [8])	Drug degradation [9]	pKb [10]
O=S1(=Nc2ccc(C(F)(F)F)cc2)CCOCC1	> 2.17 h	< 0.23	300 µg/mL (≈ 1070 µM)	8 ×10⁻⁶ cm/s	2.7	> 57 µg/mL				
CN=S(=O)(c1ccc(C(F)(F)F)cc1)N(C)C (stereo not drawn)	> 2.17 h	< 0.23	1200 µg/mL (≈ 4510 µM)	9.5 ×10⁻⁶ cm/s			< 10%	1.5	10%	
N#Cc1ccc(N=S2(=O)CCCCC2)cc1	> 2.17 h	< 0.23		7.9 ×10⁻⁶ cm/s	1.1	45 µg/mL (≈ 192 µM)				
CS(C)(=N)=NC(=O)c1ccc(C(F)(F)F)cc1	> 2.17 h	< 0.23	8100 µg/mL (≈ 30700 µM)	9.2 ×10⁻⁶ cm/s			> 90%	0.4	34%	
C[S@](=O)(=Nc1ccc(C(F)(F)F)cc1)c1ccccc1	> 2.17 h	< 0.23		2.5 ×10⁻⁶ cm/s	3.7	20 µg/mL (≈ 66.8 µM)				
CC(=O)Nc1ccc(C(F)(F)F)cc1	1 h	0.39	100 µg/mL (≈ 492 µM)	6 ×10⁻⁶ cm/s		10 µg/mL (≈ 49.2 µM)		1.8		
O=S1(=Nc2ccc(C(F)(F)F)cc2)CCC1	> 2.17 h	< 0.23		9.6 ×10⁻⁶ cm/s	2.5	48 µg/mL (≈ 193 µM)				
CC(C)(C)S(C)(=O)=Nc1ccc(C(F)(F)F)cc1 (stereo not drawn)					3.1	22 µg/mL (≈ 78.8 µM)				
O=S1(=Nc2ccccc2Cl)CCCCC1	0.467 h	0.58	500 µg/mL (≈ 2050 µM)	12 ×10⁻⁶ cm/s	2	> 50 µg/mL				
CC(=O)N(C)c1ccc(C(F)(F)F)cc1			1300 µg/mL (≈ 5990 µM)	9.7 ×10⁻⁶ cm/s		> 52 µg/mL		0.8		
CC(C)(C)OC(=O)Nc1ccc(C(F)(F)F)cc1			< 1 µg/mL	0.8 ×10⁻⁶ cm/s		< 1 µg/mL		4.4		
NC(=O)c1ccc(C(F)(F)F)cc1			300 µg/mL (≈ 1590 µM)			> 44 µg/mL		0.3		
CS(=O)(=Nc1ccc(C(F)(F)F)cc1)c1ccncc1 (stereo not drawn)	0.933 h	0.41		6.2 ×10⁻⁶ cm/s	2.6	44 µg/mL (≈ 147 µM)				
CS(C)(=O)=Nc1ccc(C(F)(F)F)cc1	> 2.17 h	< 0.23	900 µg/mL (≈ 3790 µM)	8.2 ×10⁻⁶ cm/s	1.4	> 50 µg/mL	13%	1.4	20%	
CN(C)S(C)(=O)=Nc1ccc(C(F)(F)F)cc1 (stereo not drawn)	0.7 h	0.48	70 µg/mL (≈ 263 µM)	7.6 ×10⁻⁶ cm/s		41 µg/mL (≈ 154 µM)		2.4		
CN(c1ccc(C(F)(F)F)cc1)S(C)(=O)=O			200 µg/mL (≈ 790 µM)			46 µg/mL (≈ 182 µM)		2.5		
O=S1(=Nc2ccc(C(F)(F)F)cc2)CCNCC1	1.83 h	0.25	2300 µg/mL (≈ 8260 µM)	8.3 ×10⁻⁶ cm/s	0.9	> 57 µg/mL				5.2
O=S1(=Nc2ccc(C(F)(F)F)cc2)CCCCC1	0.767 h	0.46	70 µg/mL (≈ 252 µM)	7.7 ×10⁻⁶ cm/s	2.8	51 µg/mL (≈ 184 µM)	< 10%	2.8	< 10%	
O=S1(=Nc2ccc(C(F)(F)F)cc2)CCCC1	1.83 h	0.26	6000 µg/mL (≈ 22800 µM)	8.7 ×10⁻⁶ cm/s	2.4	50 µg/mL (≈ 190 µM)				
CC(C)(C)NC(=O)c1ccc(C(F)(F)F)cc1	> 2.17 h	< 0.23	10 µg/mL (≈ 40.8 µM)	7.1 ×10⁻⁶ cm/s		14 µg/mL (≈ 57.1 µM)		2.6		
CS(C)(=O)=NC(=O)c1ccc(C(F)(F)F)cc1	1.03 h	0.39	300 µg/mL (≈ 1130 µM)	11 ×10⁻⁶ cm/s		> 53 µg/mL	> 90%	1.8	< 10%	
C[S+]([O-])Cc1ccc(C(F)(F)F)cc1 (stereo not drawn)	1.83 h	0.25	4300 µg/mL (≈ 19300 µM)	6.3 ×10⁻⁶ cm/s		> 51 µg/mL		-0.5		
O=S1(=Nc2ccccc2)CCCCC1	> 2.17 h	< 0.23		9.5 ×10⁻⁶ cm/s	-0.1	37 µg/mL (≈ 177 µM)				
CS(=O)(=O)c1ccc(C(F)(F)F)cc1			300 µg/mL (≈ 1340 µM)			> 47 µg/mL		1.5		
